Patent US5789417A, “Tricyclic compounds with pharmaceutical activity” (Zeneca Limited, priority 1992, dated 1998)

What was measured:
[1] = system: human breast cancer cell line MCF-7; test: Test (c): inhibition of growth of human breast cancer cell line MCF-7 in cell culture; assay type: cell-based; settings: MCF7, MCF-7 cell growth
Description: (c) An assay which determines the ability of a test compound to inhibit the growth of the human breast cancer cell line MCF-7 in cell culture. The test is similar to that described by Lippman et al. (Cancer Res., 1976, 36, 4595) and […]

[2] = system: leukaemia cell line L1210; test: Test (b): inhibition of growth of leukaemia cell line L1210 in cell culture; assay type: cell-based; settings: Mus musculus
Description: (b) An assay which determines the ability of a test compound to inhibit the growth of the leukaemia cell line L1210 in cell culture. The test is similar to that described in UK Patent Specification No. 2065653B and has been described by Jones et al., J. Med. Chem., 1985, 28, 1468;

[3] = system: lymphoma cell line L5178Y TK-/-; test: Test (d): cytotoxicity to lymphoma cell line L5178Y TK-/- in vitro; assay type: cell-based; settings: Mus musculus
Description: (d) An assay which determines the ability of a test compound to be cytotoxic to the lymphoma cell line L5178Y TK-/- in vitro. The lymphoma cell line L5178Y TK-/- is deficient in the enzyme thymidine kinase with phosphorylates thymidine and thus operates to generate a pool of thymidylate when de novo synthesis of thymidylate is prevented by the presence of an effective amount of an inhibitor of thymidylate synthase. The L5178Y TK-/- cell line is thereby more sensitive to the presence of an inhibitor of thymidylate synthase. [L5178Y TK-/- was obtained by mutation of the parent L5178Y cell line which is described by, for example, Fischer et al., Methods in Medical Research, 1964, 10, 247].

thymidylate synthase = molecular target: T1, thymidylate synthase (Mus musculus, UniProt P07607); test: Test (a): in vitro inhibition of thymidylate synthase; assay type: biochemical; settings: partially purified thymidylate synthase from L1210 mouse leukaemia cells
T1 construct: Thymidylate synthase was obtained in partially purified form from L1210 mouse leukaemia cells; endogenous in cells; host or cells: L1210 mouse leukaemia cells (enzyme partially purified)
T1 sequence (P07607 whole entry): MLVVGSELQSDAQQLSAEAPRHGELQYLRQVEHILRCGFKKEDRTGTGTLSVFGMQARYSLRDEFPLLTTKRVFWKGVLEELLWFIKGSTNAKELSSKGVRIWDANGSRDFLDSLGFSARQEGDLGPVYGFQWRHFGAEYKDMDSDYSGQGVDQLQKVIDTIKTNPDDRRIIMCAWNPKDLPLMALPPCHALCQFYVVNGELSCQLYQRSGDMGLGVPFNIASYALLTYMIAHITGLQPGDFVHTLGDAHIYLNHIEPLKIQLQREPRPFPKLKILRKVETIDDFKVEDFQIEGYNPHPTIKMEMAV
Description: (a) An in vitro assay which determines the ability of a test compound to inhibit the enzyme thymidylate synthase. Thymidylate synthase was obtained in partially purified form from L1210 mouse leukaemia cells and utilised using the procedures described by Jackman et al. (Cancer Res., 1986, 46, 2810 and Sikora et al., Biochem. Pharmacol. 1988, 37 4047);

[4] = system: human breast, ovarian and liver cancer; settings: clinical, in words; cited from earlier work
[5] = Cancer Treatment Reports, 1986, 70, 1335; in words; cited from earlier work

Which IC50 [1] does the source give for `C#CCN(c1ccc(C(=O)N[C@@H](CCC(=O)O)C(=O)O)cc1)C1CCc2cc3nc(C)[nH]c(=O)c3cc21` (mixture of isomers) [Example 1, N-{p-[N-((6RS)-2-methyl-4-oxo-3,4,7,8-tetrahydro-6H-cyclopenta[g]quinazolin-6-yl)-N-(prop-2-ynyl)amino]benzoyl}-L-glutamic acid] here?
Its IC50 is 20 nM.

What about the IC50 [2] of the same compound?
Its IC50 is 280 nM.

And the IC50 [3]?
Its IC50 is 720 nM.

What about the IC50 (thymidylate synthase) of the same compound?
The IC50 was 7 nM.

What does the source list for `C#CCN(Cc1ccc2nc(N)[nH]c(=O)c2c1)c1ccc(C(=O)N[C@@H](CCC(=O)O)C(=O)O)cc1` [CB3717]?
activity against human breast, ovarian and liver cancer [4]: promising activity against human breast, ovarian and liver cancer; toxicity in humans [5]: shows symptoms of toxicity in humans, particularly in relation to the liver and kidney
